Patent US20180022786A1, “NOVEL SODIUM CHANNEL BLOCKING PEPTIDES AND THE USE THEREOF” (priority 2012, published 2018)
Like-named read-outs stand apart in the source and are kept apart here.

Assays:
Nav1.7 [1] = target: T1, Nav1.7 (Homo sapiens, UniProt Q15858); test: cell-based
Target sequence in this assay (Q15858 other isoform, or with tags, fused parts or gaps): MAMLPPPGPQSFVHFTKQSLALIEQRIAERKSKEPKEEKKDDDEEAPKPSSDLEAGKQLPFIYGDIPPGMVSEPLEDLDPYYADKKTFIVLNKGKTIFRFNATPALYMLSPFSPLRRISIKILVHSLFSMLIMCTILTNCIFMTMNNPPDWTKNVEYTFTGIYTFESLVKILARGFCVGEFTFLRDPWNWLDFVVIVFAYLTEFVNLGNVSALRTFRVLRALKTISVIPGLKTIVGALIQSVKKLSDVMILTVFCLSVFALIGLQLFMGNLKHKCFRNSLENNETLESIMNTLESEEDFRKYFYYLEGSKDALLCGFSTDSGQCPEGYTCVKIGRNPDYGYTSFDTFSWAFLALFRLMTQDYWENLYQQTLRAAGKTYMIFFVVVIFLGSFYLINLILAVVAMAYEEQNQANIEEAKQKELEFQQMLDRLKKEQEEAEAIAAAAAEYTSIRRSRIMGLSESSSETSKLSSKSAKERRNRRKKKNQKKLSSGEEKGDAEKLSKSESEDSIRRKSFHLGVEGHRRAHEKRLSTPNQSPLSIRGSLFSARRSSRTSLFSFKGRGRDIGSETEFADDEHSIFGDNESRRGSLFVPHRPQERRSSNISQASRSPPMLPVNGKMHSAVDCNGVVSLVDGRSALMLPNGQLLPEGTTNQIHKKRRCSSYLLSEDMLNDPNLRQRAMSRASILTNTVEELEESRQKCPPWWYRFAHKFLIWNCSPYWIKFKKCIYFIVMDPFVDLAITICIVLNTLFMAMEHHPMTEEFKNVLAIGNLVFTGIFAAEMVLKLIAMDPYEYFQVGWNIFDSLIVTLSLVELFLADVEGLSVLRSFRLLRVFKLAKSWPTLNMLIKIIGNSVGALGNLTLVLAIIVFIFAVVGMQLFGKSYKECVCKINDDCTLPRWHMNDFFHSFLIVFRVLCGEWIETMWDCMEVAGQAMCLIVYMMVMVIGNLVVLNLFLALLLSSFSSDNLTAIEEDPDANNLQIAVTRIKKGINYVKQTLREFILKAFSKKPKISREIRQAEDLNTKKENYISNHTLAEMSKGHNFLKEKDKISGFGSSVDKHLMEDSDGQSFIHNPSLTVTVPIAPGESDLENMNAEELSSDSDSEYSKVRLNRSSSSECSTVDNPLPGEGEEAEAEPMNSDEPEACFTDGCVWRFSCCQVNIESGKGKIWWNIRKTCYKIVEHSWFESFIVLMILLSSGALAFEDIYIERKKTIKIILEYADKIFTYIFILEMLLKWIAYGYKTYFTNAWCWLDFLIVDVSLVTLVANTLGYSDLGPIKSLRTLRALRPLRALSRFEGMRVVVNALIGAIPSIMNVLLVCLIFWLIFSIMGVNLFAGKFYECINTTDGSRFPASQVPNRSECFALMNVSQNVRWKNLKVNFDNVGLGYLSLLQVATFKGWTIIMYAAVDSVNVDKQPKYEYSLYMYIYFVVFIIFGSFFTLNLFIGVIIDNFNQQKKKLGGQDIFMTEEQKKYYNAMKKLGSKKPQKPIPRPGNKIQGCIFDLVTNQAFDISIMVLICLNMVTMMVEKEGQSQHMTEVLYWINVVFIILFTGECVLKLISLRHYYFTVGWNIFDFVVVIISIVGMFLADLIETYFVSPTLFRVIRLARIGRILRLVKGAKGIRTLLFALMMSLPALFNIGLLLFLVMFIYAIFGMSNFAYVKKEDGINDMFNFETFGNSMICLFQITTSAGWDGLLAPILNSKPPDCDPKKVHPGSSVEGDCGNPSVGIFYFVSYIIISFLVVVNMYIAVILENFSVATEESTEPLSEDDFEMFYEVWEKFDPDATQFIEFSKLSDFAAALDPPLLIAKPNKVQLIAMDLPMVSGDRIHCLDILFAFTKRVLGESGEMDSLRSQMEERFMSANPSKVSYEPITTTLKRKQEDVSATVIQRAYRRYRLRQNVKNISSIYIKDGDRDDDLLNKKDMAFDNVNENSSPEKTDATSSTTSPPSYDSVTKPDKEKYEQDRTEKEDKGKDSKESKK

Nav1.2 [2] = target: T2, Nav1.2 (Rattus norvegicus, UniProt P04775); test: cell-based; conditions: EP (electrophysiology)
Nav1.2 [3] = target: Nav1.2 (Homo sapiens, UniProt Q99250); conditions: read-out: TTX IC50; cited from earlier work
Nav1.9 = Nav1.9 (Homo sapiens, UniProt Q9UI33); conditions: read-out: TTX IC50; cited from earlier work
Nav1.3 = Nav1.3 (Homo sapiens, UniProt Q9NY46); conditions: read-out: TTX IC50; cited from earlier work
Nav1.6 = Nav1.6 (Homo sapiens, UniProt Q9UQD0); conditions: read-out: TTX IC50; cited from earlier work
Nav1.1 = Nav1.1 (Homo sapiens, UniProt P35498); conditions: read-out: TTX IC50; cited from earlier work
Nav1.8 = Nav1.8 (Homo sapiens, UniProt Q9Y5Y9); conditions: read-out: TTX IC50; cited from earlier work
Nav1.7 [4] = target: T1, Nav1.7; conditions: Table 2, natural toxins, from WO 2012/004664 A2; cited from earlier work
Nav1.2 [5] = target: T2, Nav1.2; conditions: cited from earlier work
[6] = FLIPR, read-out: Nav1.7 IC50 FLIPR
[7] = Table 2, natural toxins, from WO 2012/004664 A2

T2 sequence (P04775 whole entry): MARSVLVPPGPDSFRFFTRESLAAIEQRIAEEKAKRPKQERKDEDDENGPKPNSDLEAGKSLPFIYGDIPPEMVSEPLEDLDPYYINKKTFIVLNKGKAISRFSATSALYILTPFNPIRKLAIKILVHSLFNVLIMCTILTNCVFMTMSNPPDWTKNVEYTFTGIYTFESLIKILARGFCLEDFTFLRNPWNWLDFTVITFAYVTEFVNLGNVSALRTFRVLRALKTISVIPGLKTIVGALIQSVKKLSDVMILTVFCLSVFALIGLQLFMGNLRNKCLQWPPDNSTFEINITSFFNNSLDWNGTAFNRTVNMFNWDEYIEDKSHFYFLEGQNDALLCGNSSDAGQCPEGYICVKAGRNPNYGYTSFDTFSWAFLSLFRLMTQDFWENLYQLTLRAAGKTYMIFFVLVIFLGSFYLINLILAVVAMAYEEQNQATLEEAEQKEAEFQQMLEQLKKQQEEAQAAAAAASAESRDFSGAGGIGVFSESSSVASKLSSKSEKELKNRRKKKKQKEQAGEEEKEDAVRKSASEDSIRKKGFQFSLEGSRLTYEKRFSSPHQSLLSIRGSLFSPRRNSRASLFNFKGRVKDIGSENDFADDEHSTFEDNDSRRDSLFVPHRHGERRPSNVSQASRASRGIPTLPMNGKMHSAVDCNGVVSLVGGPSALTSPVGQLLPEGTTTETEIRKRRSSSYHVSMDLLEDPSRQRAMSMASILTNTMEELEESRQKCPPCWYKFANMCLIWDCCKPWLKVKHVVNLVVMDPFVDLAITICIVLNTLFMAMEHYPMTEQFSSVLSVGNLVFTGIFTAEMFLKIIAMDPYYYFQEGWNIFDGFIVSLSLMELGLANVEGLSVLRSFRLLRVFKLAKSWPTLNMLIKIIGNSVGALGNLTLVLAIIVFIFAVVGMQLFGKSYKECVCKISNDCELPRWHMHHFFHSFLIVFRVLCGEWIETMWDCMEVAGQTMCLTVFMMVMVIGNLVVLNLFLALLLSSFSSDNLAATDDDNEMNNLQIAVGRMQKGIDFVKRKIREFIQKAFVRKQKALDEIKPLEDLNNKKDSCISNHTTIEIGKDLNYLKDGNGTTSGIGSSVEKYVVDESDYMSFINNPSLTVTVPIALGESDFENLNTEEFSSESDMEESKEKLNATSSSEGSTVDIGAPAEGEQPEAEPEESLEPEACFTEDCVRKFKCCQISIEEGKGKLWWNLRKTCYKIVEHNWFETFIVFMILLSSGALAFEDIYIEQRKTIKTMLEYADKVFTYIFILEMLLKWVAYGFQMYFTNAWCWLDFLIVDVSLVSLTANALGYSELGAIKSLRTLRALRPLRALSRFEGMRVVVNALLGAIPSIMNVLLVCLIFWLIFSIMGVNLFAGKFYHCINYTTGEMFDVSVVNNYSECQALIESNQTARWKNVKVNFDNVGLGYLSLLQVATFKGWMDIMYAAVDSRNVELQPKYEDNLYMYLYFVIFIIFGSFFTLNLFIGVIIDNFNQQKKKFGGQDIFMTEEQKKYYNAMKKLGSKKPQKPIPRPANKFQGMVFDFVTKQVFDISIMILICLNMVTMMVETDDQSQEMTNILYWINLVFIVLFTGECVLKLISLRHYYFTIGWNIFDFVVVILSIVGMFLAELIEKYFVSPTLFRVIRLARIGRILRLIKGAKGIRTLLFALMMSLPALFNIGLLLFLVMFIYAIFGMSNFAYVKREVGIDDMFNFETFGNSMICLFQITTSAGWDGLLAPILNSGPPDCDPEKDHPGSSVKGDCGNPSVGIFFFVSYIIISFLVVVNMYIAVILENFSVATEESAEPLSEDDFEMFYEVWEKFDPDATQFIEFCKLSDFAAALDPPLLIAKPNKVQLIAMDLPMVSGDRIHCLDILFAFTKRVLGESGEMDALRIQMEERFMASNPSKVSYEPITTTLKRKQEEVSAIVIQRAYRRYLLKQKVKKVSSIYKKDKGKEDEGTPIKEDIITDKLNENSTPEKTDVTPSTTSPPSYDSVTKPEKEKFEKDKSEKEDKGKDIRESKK

Row | Compound | IC50 (Nav1.7 [1]; [6]) [nM] | IC50 (Nav1.7 [4]) [nM] | IC50 (Nav1.2 [5]; [7]) [nM] | further results
1 | CSCC[C@@H]1NC(=O)CNC(=O)[C@H](CCC(=O)O)NC(=O)[C@@H]2CSSC[C@H](NC(=O)[C@@H](N)Cc3ccc(O)cc3)C(=O)N[C@@H](CCC(N)=O)C(=O)N[C@@H](CCCCN)C(=O)N[C@@H](Cc3c[nH]c4ccccc34)C(=O)N[C@@H](CCSC)C(=O)N[C@@H](Cc3c[nH]c4ccccc34)C(=O)N[C@@H]([C@@H](C)O)C(=O)N[C@H]3CSSC[C@H](NC(=O)[C@H](C(C)C)NC1=O)C(=O)N[C@@H](CCCNC(=N)N)C(=O)N[C@@H](CC(C)C)C(=O)N[C@@H](Cc1c[nH]c4ccccc14)C(=O)N[C@H](C(=O)N[C@@H](CCCCN)C(=O)N[C@@H](CCCCN)C(=O)N[C@@H](CCCCN)C(=O)N[C@@H](CC(C)C)C(=O)N[C@H](Cc1c[nH]c4ccccc14)C(=O)NC1CCCCC1)CSSC[C@H](NC(=O)[C@H](CCCCN)NC(=O)[C@H](CCCNC(=N)N)NC(=O)[C@H](CCC(=O)O)NC(=O)[C@H](CO)NC(=O)[C@H](CC(=O)O)NC3=O)C(=O)N2 [Protoxin II (D)-NHcyclohexyl] | 31 | – | – | –
2 | CSCC[C@@H]1NC(=O)CNC(=O)[C@H](CCC(=O)O)NC(=O)[C@@H]2CSSC[C@H](NC(=O)[C@@H](N)Cc3ccc(O)cc3)C(=O)N[C@@H](CCC(N)=O)C(=O)N[C@@H](CCCCN)C(=O)N[C@@H](Cc3c[nH]c4ccccc34)C(=O)N[C@@H](CCSC)C(=O)N[C@@H](Cc3c[nH]c4ccccc34)C(=O)N[C@@H]([C@@H](C)O)C(=O)N[C@H]3CSSC[C@H](NC(=O)[C@H](C(C)C)NC1=O)C(=O)N[C@@H](CCCNC(=N)N)C(=O)N[C@@H](CC(C)C)C(=O)N[C@@H](Cc1c[nH]c4ccccc14)C(=O)N[C@H](C(=O)N[C@@H](CCCCN)C(=O)N[C@@H](CCCCN)C(=O)N[C@@H](CCCCN)C(=O)N[C@@H](CC(C)C)C(=O)N[C@@H](Cc1c[nH]c4ccccc14)C(=O)N[C@H](Cc1c[nH]c4ccccc14)C(=O)O)CSSC[C@H](NC(=O)[C@H](CCCCN)NC(=O)[C@H](CCCNC(=N)N)NC(=O)[C@H](CCC(=O)O)NC(=O)[C@H](CO)NC(=O)[C@H](CC(=O)O)NC3=O)C(=O)N2 [Protoxin II-D-Trp] | 16.5 | – | – | –
3 | CNC(=O)[C@H](Cc1c[nH]c2ccccc12)NC(=O)[C@H](CC(C)C)NC(=O)[C@H](CCCCN)NC(=O)[C@H](CCCCN)NC(=O)[C@H](CCCCN)NC(=O)[C@@H]1CSSC[C@@H]2NC(=O)[C@H](CCCCN)NC(=O)[C@H](CCCNC(=N)N)NC(=O)[C@H](CCC(=O)O)NC(=O)[C@H](CO)NC(=O)[C@H](CC(=O)O)NC(=O)[C@@H]3CSSC[C@H](NC(=O)[C@H](C(C)C)NC(=O)[C@H](CCSC)NC(=O)CNC(=O)[C@H](CCC(=O)O)NC(=O)[C@H](CSSC[C@H](NC(=O)[C@@H](N)Cc4ccc(O)cc4)C(=O)N[C@@H](CCC(N)=O)C(=O)N[C@@H](CCCCN)C(=O)N[C@@H](Cc4c[nH]c5ccccc45)C(=O)N[C@@H](CCSC)C(=O)N[C@@H](Cc4c[nH]c5ccccc45)C(=O)N[C@@H]([C@@H](C)O)C(=O)N3)NC2=O)C(=O)N[C@@H](CCCNC(=N)N)C(=O)N[C@@H](CC(C)C)C(=O)N[C@@H](Cc2c[nH]c3ccccc23)C(=O)N1 [Protoxin II-NHMe] | 64.3 | – | – | –
4 | CSCC[C@@H]1NC(=O)CNC(=O)[C@H](CCC(=O)O)NC(=O)[C@@H]2CSSC[C@H](NC(=O)[C@@H](N)Cc3ccc(O)cc3)C(=O)N[C@@H](CCC(N)=O)C(=O)N[C@@H](CCCCN)C(=O)N[C@@H](Cc3c[nH]c4ccccc34)C(=O)N[C@@H](CCSC)C(=O)N[C@@H](Cc3c[nH]c4ccccc34)C(=O)N[C@@H]([C@@H](C)O)C(=O)N[C@H]3CSSC[C@H](NC(=O)[C@H](C(C)C)NC1=O)C(=O)N[C@@H](CCCNC(=N)N)C(=O)N[C@@H](CC(C)C)C(=O)N[C@@H](Cc1c[nH]c4ccccc14)C(=O)N[C@H](C(=O)N[C@@H](CCCCN)C(=O)N[C@@H](CCCCN)C(=O)N[C@@H](CCCCN)C(=O)N[C@@H](CC(C)C)C(=O)N[C@@H](Cc1c[nH]c4ccccc14)C(=O)Nc1ccccc1)CSSC[C@H](NC(=O)[C@H](CCCCN)NC(=O)[C@H](CCCNC(=N)N)NC(=O)[C@H](CCC(=O)O)NC(=O)[C@H](CO)NC(=O)[C@H](CC(=O)O)NC3=O)C(=O)N2 [Protoxin II-NHanaline] | – | – | – | IC50 (Nav1.7 [1]): 5.1 nM
5 | CSCC[C@@H]1NC(=O)CNC(=O)[C@H](CCC(=O)O)NC(=O)[C@@H]2CSSC[C@H](NC(=O)[C@@H](N)Cc3ccc(O)cc3)C(=O)N[C@@H](CCC(N)=O)C(=O)N[C@@H](CCCCN)C(=O)N[C@@H](Cc3c[nH]c4ccccc34)C(=O)N[C@@H](CCSC)C(=O)N[C@@H](Cc3c[nH]c4ccccc34)C(=O)N[C@@H]([C@@H](C)O)C(=O)N[C@H]3CSSC[C@H](NC(=O)[C@H](C(C)C)NC1=O)C(=O)N[C@@H](CCCNC(=N)N)C(=O)N[C@@H](CC(C)C)C(=O)N[C@@H](Cc1c[nH]c4ccccc14)C(=O)N[C@H](C(=O)N[C@@H](CCCCN)C(=O)N[C@@H](CCCCN)C(=O)N[C@@H](CCCCN)C(=O)N[C@@H](CC(C)C)C(=O)N[C@@H](Cc1c[nH]c4ccccc14)C(=O)NC1CCCCC1)CSSC[C@H](NC(=O)[C@H](CCCCN)NC(=O)[C@H](CCCNC(=N)N)NC(=O)[C@H](CCC(=O)O)NC(=O)[C@H](CO)NC(=O)[C@H](CC(=O)O)NC3=O)C(=O)N2 [Protoxin II-NHcyclohexyl] | 22 | – | – | –
6 | COC(=O)[C@H](Cc1c[nH]c2ccccc12)NC(=O)[C@H](CC(C)C)NC(=O)[C@H](CCCCN)NC(=O)[C@H](CCCCN)NC(=O)[C@H](CCCCN)NC(=O)[C@@H]1CSSC[C@@H]2NC(=O)[C@H](CCCCN)NC(=O)[C@H](CCCNC(=N)N)NC(=O)[C@H](CCC(=O)O)NC(=O)[C@H](CO)NC(=O)[C@H](CC(=O)O)NC(=O)[C@@H]3CSSC[C@H](NC(=O)[C@H](C(C)C)NC(=O)[C@H](CCSC)NC(=O)CNC(=O)[C@H](CCC(=O)O)NC(=O)[C@H](CSSC[C@H](NC(=O)[C@@H](N)Cc4ccc(O)cc4)C(=O)N[C@@H](CCC(N)=O)C(=O)N[C@@H](CCCCN)C(=O)N[C@@H](Cc4c[nH]c5ccccc45)C(=O)N[C@@H](CCSC)C(=O)N[C@@H](Cc4c[nH]c5ccccc45)C(=O)N[C@@H]([C@@H](C)O)C(=O)N3)NC2=O)C(=O)N[C@@H](CCCNC(=N)N)C(=O)N[C@@H](CC(C)C)C(=O)N[C@@H](Cc2c[nH]c3ccccc23)C(=O)N1 [Protoxin II-OMe] | 8.4 | – | – | –
7 | CSCC[C@@H]1NC(=O)CNC(=O)[C@H](CCC(=O)O)NC(=O)[C@@H]2CSSC[C@H](NC(=O)[C@@H](N)Cc3ccc(O)cc3)C(=O)N[C@@H](CCC(N)=O)C(=O)N[C@@H](CCCCN)C(=O)N[C@@H](Cc3c[nH]c4ccccc34)C(=O)N[C@@H](CCSC)C(=O)N[C@@H](Cc3c[nH]c4ccccc34)C(=O)N[C@@H]([C@@H](C)O)C(=O)N[C@H]3CSSC[C@H](NC(=O)[C@H](C(C)C)NC1=O)C(=O)N[C@@H](CCCNC(=N)N)C(=O)N[C@@H](CC(C)C)C(=O)N[C@@H](Cc1c[nH]c4ccccc14)C(=O)N[C@H](C(=O)N[C@@H](CCCCN)C(=O)N[C@@H](CCCCN)C(=O)N[C@@H](CCCCN)C(=O)N[C@@H](CC(C)C)C(=O)N[C@@H](Cc1c[nH]c4ccccc14)C(=O)O)CSSC[C@H](NC(=O)[C@H](CCCCN)NC(=O)[C@H](CCCNC(=N)N)NC(=O)[C@H](CCC(=O)O)NC(=O)[C@H](CO)NC(=O)[C@H](CC(=O)O)NC3=O)C(=O)N2 [Protoxin II] | – | – | – | IC50 (Nav1.2 [2]): 100 nM
8 | NC1=N[C@H](O)[C@H]2[C@H]3O[C@]4(O)O[C@@H]([C@@H](O)[C@@]2(N1)[C@@H]4O)[C@]3(O)CO [TTX, tetrodotoxin] | – | – | – | IC50 (Nav1.2 [3]): 10 nM; IC50 (Nav1.9): 1000 nM; IC50 (Nav1.3): 15 nM; IC50 (Nav1.6): 6 nM; IC50 (Nav1.1): 10 nM; IC50 (Nav1.8): 50000 nM
9 | YCQKWLWTCDSERKCCEDMVCRLWCKKRL [GsAF I] | – | 249 | 255 ± 43 | –
10 | YCQKWMWTCDEERKCCEGLVCRLWCKKKIEEG [VsTx II] | – | 9260 | 42400 | –
11 | YCQKWMWTCDEERKCCEGLVCRLWCKKKIEW [GsAF II] | – | 70 | 410 ± 20 | –
12 | YCQKWMWTCDEERKCCEGLVCRLWCKRIINM [GsMTx II/PaTX II] | – | 260 | 2700 | –
13 | YCQKWMWTCDSARKCCEGLVCRLWCKKII [PaTx I] | – | – | – | IC50 (Nav1.2 [5]): 5000 nM
14 | YCQKWMWTCDSERKCCEGYVCELWCKYNL [JxTx XII] | – | – | – | IC50 (Nav1.2 [5]): 73900 nM
15 | YCQKWMWTCDSKRACCEGLRCKLWCRKII [JzTx V] | – | – | 157 ± 20 | –
16 | YCQKWMWTCDSKRKCCEDMVCQLWCKKRL [GrTx I] | – | 1010 | 2690 | –
